Where a name gives a salt, the structure may show the parent alone.
Legend:
Assay type in all cases: biochemical
ALK = ALK (Homo sapiens, UniProt Q9UM73); assay: Inhibition of kinase ALK (PLCγ1-GST substrate, anti-phosphotyrosine ELISA); conditions: ALK 180 ng/ml, 250 μM ATP, 30 minutes at 30° C.
Description: Incubation is carried out for 30 minutes at 30° C. with agitation.
The signal is read in luminescent mode using a luminometer.

RET = biological target: T1, RET (Homo sapiens, UniProt P07949); assay: Inhibition of RET kinase activity, recombinant RET method (Kinase-Glo); conditions: RET 2 μg/ml, poly-EY4 substrate, 20 μM ATP, two hours at 30° C.
T1 construct: purchased Upstate 14-570MG
Method in brief: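 Recombinant RET at 2 μg/ml in 20 mM MOPS/NaOH pH 7.0, 1 mM EDTA, 5% glycerol, 0.01% Brij35, 0.1% 2-mercaptoethanol, 1 mg/ml BSA; compounds 10 nM–30 μM final.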

PIM-1 = biological target: T2, PIM-1 (Homo sapiens, UniProt P11309); assay: Inhibition of kinase PIM-1 (Kinase-Glo); conditions: PIM-1 0.625 μg/ml, 10 μM ATP, forty minutes at 30° C.
T2 construct: purchased Upstate 14-573
Description: Protein PIM-1 (Upstate #14-573 batch 25864U) is incubated at a concentration of 0.625 μg/ml in a buffer containing 8 mM of MOPS/NaOH pH7, 0.2 mM EDTA, 5 mM MgAc (Sigma #229768), 0.01% Triton Tx100, in the presence of 70 μM of peptide substrate S6 Kinase/Rsk2 (Upstate #12-243), and 10 μM of ATP.
The dilution buffer for PIM-1 is as follows: 20 mM MOPS/NaOH pH7, 1 mM EDTA, 5% glycerol, 0.01% Brij35, 0.1% 2-mercapto, 1 mg/ml BSA
(§1) The compound to be tested is first added to the enzyme to give a reaction volume of 50 μl. The dilution of the compounds of the invention is distributed so as to obtain a scale of final concentrations between 10 nM and 30 μM.
(§2) After incubation of the reaction mixture for forty minutes at 30° C., the level of ATP that remains is assayed using the Kinase-Glo Luminescent Kinase Assay (Promega #V6712) according to the conditions recommended by the supplier. The luminescence induced is read in a plate reader (Envision-Perkin Elmer).

TrkB = biological target: T3, TrkB (Homo sapiens, UniProt Q16620); assay: Inhibition of kinase TrkB (Kinase-Glo); conditions: TrkB 4 μg/ml, 40 μM ATP, two hours at 30° C.
T3 construct: purchased Upstate 14-507
Description: Protein TrkB (Upstate 14-507; batch #25578U) is incubated at a concentration of 4 μg/ml in a buffer containing 8 mM of MOPS/NaOH pH7, 0.2 mM EDTA, 40 mM MgAc (Sigma #229768), 1 mM DTT (Fluka #43816), NaOV 1 mM, 25 mM 2-glycerolphosphate (Sigma #G9891), in the presence of 2.5 mg/ml of peptide substrate poly-EY (Upstate #P0275), and 40 μM of ATP.
The dilution buffer for TrkB is as follows: 20 mM MOPS/NaOH pH7, 1 mM EDTA, 5% glycerol, 0.01% Brij35, 0.1% 2-mercapto, 1 mg/ml BSA.
as §1
as §2, with “two hours” for “forty minutes”

TrkA = biological target: T4, TrkA (Homo sapiens, UniProt P04629); assay: Inhibition of kinase TrkA (Kinase-Glo); conditions: TrkA 4 μg/ml, 30 μM ATP, two hours at 30° C.
T4 construct: purchased Upstate 14-571
Description: Protein TrkA (Upstate 14-571; batch #25634U) is incubated at a concentration of 4 μg/ml in a buffer containing 8 mM of MOPS/NaOH pH7, 0.2 mM EDTA, 40 mM MgAc (Sigma #229768), 1 mM DTT (Fluka #43816), NaOV 1 mM, 0.01% Triton Tx100, in the presence of 1 mg/ml of peptide substrate poly-EY (Upstate #P0275), and 30 μM of ATP.
The dilution buffer for TrkA is as follows: 20 mM MOPS/NaOH pH7, 1 mM EDTA, 5% glycerol, 0.01% Brij35, 0.1% 2-mercapto, 1 mg/ml BSA.
as §1
as §2, with “two hours” for “forty minutes”

T3 sequence (Q16620 32-822): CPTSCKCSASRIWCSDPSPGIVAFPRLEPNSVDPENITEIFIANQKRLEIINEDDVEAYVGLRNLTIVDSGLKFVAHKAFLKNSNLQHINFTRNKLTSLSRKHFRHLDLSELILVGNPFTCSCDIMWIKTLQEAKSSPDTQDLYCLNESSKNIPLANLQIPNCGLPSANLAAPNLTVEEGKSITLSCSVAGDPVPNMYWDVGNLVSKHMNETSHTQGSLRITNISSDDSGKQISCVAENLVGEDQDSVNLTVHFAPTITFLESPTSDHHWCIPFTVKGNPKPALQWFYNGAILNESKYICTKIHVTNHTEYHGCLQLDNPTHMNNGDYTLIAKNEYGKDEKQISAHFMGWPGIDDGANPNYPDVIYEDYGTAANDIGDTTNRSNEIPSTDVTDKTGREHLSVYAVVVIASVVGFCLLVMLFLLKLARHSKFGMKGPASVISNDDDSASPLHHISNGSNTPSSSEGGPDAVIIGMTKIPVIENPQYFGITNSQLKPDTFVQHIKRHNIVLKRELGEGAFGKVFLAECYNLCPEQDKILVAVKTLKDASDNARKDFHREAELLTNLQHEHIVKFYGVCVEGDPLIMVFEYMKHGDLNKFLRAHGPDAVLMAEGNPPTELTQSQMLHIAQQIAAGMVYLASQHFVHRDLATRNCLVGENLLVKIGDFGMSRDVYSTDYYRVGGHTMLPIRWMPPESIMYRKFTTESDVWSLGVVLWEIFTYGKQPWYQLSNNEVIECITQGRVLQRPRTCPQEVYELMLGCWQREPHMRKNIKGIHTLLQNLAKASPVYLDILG
ALK, sequence (Q9UM73 19-1620, species assumed): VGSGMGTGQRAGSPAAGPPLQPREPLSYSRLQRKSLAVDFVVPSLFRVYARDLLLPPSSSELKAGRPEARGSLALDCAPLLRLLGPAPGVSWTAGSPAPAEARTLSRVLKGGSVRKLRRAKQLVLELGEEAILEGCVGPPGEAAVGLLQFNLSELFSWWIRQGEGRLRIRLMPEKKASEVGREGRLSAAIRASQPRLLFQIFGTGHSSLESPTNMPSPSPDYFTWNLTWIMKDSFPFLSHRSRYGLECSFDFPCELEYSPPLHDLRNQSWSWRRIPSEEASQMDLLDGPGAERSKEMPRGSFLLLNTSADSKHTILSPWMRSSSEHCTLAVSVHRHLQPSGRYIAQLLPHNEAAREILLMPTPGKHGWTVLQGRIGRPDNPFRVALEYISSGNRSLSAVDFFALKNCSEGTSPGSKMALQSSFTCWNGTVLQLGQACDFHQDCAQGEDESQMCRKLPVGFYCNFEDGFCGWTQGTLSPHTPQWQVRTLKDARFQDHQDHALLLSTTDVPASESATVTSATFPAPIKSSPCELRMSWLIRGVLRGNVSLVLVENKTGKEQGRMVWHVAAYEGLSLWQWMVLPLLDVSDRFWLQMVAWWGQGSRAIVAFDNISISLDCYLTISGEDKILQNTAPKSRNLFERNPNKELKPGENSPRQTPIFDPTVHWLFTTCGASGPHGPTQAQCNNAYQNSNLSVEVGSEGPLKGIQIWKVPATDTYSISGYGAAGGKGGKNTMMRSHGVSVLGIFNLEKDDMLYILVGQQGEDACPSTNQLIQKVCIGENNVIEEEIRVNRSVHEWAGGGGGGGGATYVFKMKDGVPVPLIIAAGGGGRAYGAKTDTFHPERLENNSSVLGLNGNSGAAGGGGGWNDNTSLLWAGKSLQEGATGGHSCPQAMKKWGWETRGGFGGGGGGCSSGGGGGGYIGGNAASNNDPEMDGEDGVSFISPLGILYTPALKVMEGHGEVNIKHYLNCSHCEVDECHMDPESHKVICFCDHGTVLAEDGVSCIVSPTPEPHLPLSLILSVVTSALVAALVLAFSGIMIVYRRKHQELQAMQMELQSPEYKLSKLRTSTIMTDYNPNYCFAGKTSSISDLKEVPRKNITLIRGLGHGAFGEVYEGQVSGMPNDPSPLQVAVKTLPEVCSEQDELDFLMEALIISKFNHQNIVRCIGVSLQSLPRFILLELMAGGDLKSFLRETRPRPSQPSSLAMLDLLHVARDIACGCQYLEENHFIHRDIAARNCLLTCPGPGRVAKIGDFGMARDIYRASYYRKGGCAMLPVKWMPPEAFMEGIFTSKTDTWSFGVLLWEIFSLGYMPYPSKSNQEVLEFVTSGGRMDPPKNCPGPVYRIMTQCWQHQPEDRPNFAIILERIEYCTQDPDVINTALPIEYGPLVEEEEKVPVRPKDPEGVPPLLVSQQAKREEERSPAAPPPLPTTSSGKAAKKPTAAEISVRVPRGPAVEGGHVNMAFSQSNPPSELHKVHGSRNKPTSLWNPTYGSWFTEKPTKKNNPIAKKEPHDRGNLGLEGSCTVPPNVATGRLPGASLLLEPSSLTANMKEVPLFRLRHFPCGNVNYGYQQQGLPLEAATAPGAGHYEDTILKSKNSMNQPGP
T2 sequence (P11309 whole entry): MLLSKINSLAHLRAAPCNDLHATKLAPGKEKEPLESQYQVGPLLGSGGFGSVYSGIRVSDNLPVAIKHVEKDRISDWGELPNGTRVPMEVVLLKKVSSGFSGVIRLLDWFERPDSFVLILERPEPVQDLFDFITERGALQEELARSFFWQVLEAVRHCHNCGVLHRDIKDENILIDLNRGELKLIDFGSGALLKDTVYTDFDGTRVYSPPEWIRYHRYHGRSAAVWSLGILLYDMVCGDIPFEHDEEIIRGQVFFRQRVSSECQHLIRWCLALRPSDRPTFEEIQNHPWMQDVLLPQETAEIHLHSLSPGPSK
T1 sequence (P07949 29-1114): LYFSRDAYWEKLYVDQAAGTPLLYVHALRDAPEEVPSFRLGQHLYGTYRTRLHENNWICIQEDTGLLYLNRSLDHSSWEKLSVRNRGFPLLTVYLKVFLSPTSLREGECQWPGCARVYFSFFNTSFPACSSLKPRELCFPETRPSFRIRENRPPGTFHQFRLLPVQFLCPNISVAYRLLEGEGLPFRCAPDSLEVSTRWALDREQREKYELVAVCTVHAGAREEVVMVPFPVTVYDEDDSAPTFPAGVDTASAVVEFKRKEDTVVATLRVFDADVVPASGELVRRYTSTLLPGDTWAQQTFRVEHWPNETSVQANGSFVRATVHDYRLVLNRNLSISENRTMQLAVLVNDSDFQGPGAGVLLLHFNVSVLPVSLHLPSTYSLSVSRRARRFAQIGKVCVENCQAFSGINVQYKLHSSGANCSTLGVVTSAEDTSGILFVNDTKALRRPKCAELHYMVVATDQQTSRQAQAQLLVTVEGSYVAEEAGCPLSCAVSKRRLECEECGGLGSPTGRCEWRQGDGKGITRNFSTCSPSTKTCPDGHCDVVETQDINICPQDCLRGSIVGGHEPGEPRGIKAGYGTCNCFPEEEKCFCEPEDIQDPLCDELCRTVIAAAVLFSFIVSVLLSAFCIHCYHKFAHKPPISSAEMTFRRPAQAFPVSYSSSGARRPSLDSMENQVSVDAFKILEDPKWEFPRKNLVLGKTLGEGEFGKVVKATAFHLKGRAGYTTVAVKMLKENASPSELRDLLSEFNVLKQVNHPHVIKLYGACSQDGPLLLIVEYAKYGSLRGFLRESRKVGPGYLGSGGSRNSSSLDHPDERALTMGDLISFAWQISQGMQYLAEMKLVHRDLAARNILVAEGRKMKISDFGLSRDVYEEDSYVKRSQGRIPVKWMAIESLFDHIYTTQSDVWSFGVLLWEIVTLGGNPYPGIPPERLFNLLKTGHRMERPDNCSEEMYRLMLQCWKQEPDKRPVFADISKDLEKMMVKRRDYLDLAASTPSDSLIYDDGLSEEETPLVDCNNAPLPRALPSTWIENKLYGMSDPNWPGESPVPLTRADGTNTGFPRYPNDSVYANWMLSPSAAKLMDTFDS
T4 sequence (P04629 33-796): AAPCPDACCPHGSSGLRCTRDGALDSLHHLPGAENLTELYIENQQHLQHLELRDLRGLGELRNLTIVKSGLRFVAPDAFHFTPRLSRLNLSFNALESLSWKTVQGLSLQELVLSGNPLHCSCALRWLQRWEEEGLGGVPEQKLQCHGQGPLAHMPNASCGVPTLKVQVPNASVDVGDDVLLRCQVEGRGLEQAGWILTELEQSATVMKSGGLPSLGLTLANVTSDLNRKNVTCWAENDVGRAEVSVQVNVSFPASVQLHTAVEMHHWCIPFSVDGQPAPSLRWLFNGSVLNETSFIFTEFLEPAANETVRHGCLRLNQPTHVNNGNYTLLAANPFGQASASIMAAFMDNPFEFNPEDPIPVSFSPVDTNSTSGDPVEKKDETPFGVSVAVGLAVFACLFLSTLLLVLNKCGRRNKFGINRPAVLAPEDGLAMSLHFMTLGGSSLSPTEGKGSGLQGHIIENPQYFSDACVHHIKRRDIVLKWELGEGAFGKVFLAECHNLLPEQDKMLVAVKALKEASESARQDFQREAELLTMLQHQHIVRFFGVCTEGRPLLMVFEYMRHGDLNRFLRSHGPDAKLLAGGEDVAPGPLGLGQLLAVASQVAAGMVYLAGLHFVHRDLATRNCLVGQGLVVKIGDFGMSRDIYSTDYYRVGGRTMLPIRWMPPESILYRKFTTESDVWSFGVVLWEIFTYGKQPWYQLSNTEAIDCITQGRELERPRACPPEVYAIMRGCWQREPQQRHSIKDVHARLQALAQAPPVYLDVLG

Row | Compound | IC50 (ALK) [nM] | IC50 (RET) [nM] | IC50 (PIM-1) [nM] | IC50 (TrkB) [nM] | IC50 (TrkA) [nM]
1 | CCCOC(=O)c1c[nH]c2c(=O)[nH]c3ccc(S(=O)(=O)N(C[C@@H](C)N)C4CC4)cc3c12 [Compound 155, (R)-8-[(2-Amino-propyl)-cyclopropyl-sulfamoyl]-4-oxo-4,5-dihydro-3H-pyrrolo[2,3-c]quinoline-1-propyl carboxylate hydrochloride] | 100 to 1000 | < 100 |  |  | 
2 | CCCOC(=O)c1c[nH]c2c(=O)[nH]c3ccc(S(=O)(=O)N(C[C@H](C)N)C4CC4)cc3c12 [Compound 153, (S)-8-[(2-Amino-propyl)-cyclopropyl-sulfamoyl]-4-oxo-4,5-dihydro-3H-pyrrolo[2,3-c]quinoline-1-propyl carboxylate hydrochloride] | 100 to 1000 | < 100 |  |  | 
3 | CCOC(=O)c1c[nH]c2c(=O)[nH]c3ccc(S(=O)(=O)NC4CC4)cc3c12 [Compound 123, 8-Cyclopropylsulfamoyl-4-oxo-4,5-dihydro-3H-pyrrolo[2,3-c]quinoline-1-ethyl carboxylate] | 1000 to 10000 | 100 to 1000 |  |  | 
4 | CCCOC(=O)c1c[nH]c2c(=O)[nH]c3ccc(S(=O)(=O)N(C)CC(N)=O)cc3c12 [Compound 177, 8-(Carbamoylmethyl-methyl-sulfamoyl)-4-oxo-4,5-dihydro-3H-pyrrolo[2,3-c]quinoline-1-propyl carboxylate] | 100 to 1000 | 100 to 1000 |  |  | 
5 | CCCOC(=O)c1c[nH]c2c(=O)[nH]c3ccc(S(=O)(=O)N(C[C@@H]4CCCN4)C(C)C)cc3c12 [Compound 149, (S)-8-(Isopropyl-pyrrolidin-2-ylmethyl-sulfamoyl)-4-oxo-4,5-dihydro-3H-pyrrolo[2,3-c]quinoline-1-propyl carboxylate hydrochloride] | 100 to 1000 | < 100 |  |  | 
6 | CCOC(=O)c1c[nH]c2c(=O)[nH]c3ccc(-c4cccc(CO)c4)cc3c12 [Compound 240, 8-(3-Hydroxymethyl-phenyl)-4-oxo-4,5-dihydro-3H-pyrrolo[2,3-c]quinoline-1-ethyl carboxylate] |  | 100 to 1000 | 1000 to 10000 | 1000 to 10000 | 1000 to 10000
7 | CCOC(=O)c1c[nH]c2c(=O)[nH]c3ccc(C(=O)N(C[C@@H]4CCCN4)C4CC4)cc3c12 [Compound 219, (S)-8-(cyclopropyl-pyrrolidin-2-ylmethyl-carbamoyl), 3-oxo-4,5-dihydro-3H-pyrrolo[2,3-c]quinoline-1-ethyl carboxylate hydrochloride] | 1000 to 10000 | 1000 to 10000 |  |  | 
8 | CCOC(=O)c1c[nH]c2c(=O)[nH]c3ccc(-c4cccc(CN(C)C)c4)cc3c12 [Compound 242, 8-(3-Dimethylaminomethyl-phenyl)-4-oxo-4,5-dihydro-3H-pyrrolo[2,3-c]quinoline-1-ethyl carboxylate] |  | 100 to 1000 | 1000 to 10000 | 10000 to 100000 | 10000 to 100000
9 | CCOC(=O)c1c[nH]c2c(=O)[nH]c3ccc(S(=O)(=O)N(CCC#N)C4CC4)cc3c12 [Compound 127, 8-[(2-Cyano-ethyl)-cyclopropyl-sulfamoyl]-4-oxo-4,5-dihydro-3H-pyrrolo[2,3-c]quinoline-1-ethyl carboxylate] |  | < 100 | 10000 to 100000 | 1000 to 10000 | 1000 to 10000
10 | CCCOC(=O)c1c[nH]c2c(=O)[nH]c3ccc(S(=O)(=O)N(C)C4CCNCC4)cc3c12 [Compound 120, 8-(Methyl-piperidin-4-yl-sulfamoyl)-4-oxo-4,5-dihydro-3H-pyrrolo[2,3-c]quinoline-1-propyl carboxylate] |  | < 100 | 10000 to 100000 | 10000 to 100000 | 1000 to 10000
11 | CCOC(=O)c1c[nH]c2c(=O)[nH]c3ccc(S(=O)(=O)O)cc3c12 [Compound 227, 4-Oxo-8-sulfo-4,5-dihydro-3H-pyrrolo[2,3-c]quinoline-1-ethyl carboxylate] |  | 1000 to 10000 | 1000 to 10000 | 1000 to 10000 | 1000 to 10000
